Patent EP0369035A1, “AGENT FOR TREATING PANCREATITIS OR THE LIKE” (priority 1988, dated 1989)

Assays:
[1] = molecular target: T1, human plasmin (Homo sapiens, UniProt P00747); test: Anti-plasmin activity: inhibition of S-2251 degradation; assay type: biochemical; conditions: substrate S-2251, 37°C, pH7.4; read-out: Plasmin S-2251 (I50)
T1 construct: 50 µl of 0.2 casein units/ml of human plasmin
Description: ii) Assay method of inhibition of S-2251 degradation
The test substance was dissolved in a 0.05 M Tris-HC1 (pH7.4) buffer to make a total volume of 400 µl, and 50 µl of a 3 mM S-2251 solution was added to the solution. The mixture was incubated at 37°C for 5 minutes in an incubator, and after the addition of 50 µl of 0.2 casein units/ml of human plasmin, and incubation at 37°C for 4 minutes, the reaction was terminated by an addition of 50 µl of 50% acetic acid.

[2] = molecular target: T1, human plasmin; test: Anti-plasmin activity: inhibition of fibrinolysis (fibrin clot lysis time); assay type: biochemical; conditions: concentration giving a fibrin clot lysis time twice that of control, 37°C, pH7.4; read-out: Plasmin Fibrin (I50)
[3] = molecular target: T2, human plasma kallikrein (Homo sapiens, UniProt P03952); test: Anti-plasma kallikrein activity: inhibition of S-2302 degradation; assay type: biochemical; conditions: substrate S-2302, 37°C, pH 7.8; read-out: Plasma kallikrein S-2302 (I50)
T2 construct: 50 µl of 0.12 units/ml human plasma kallikrein solution
T2 sequence (P03952 391-638 limits assumed): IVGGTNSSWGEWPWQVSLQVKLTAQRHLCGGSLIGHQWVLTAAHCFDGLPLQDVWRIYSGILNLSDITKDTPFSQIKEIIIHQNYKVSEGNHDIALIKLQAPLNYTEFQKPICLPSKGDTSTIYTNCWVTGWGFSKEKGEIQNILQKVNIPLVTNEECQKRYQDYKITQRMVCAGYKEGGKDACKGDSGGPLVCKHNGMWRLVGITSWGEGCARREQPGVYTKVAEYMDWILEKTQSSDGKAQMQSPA
T2 sequence (P03952 20-390 partner limits assumed): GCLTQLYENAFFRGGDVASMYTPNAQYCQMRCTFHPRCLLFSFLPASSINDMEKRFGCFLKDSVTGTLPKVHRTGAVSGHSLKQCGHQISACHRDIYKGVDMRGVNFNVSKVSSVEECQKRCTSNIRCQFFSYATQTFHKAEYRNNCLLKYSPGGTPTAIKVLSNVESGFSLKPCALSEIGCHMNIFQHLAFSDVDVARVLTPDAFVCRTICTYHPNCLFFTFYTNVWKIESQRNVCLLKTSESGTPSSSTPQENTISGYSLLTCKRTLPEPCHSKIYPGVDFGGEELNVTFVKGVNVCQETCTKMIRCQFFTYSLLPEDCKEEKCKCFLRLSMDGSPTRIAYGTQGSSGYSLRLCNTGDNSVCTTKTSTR
Description: 2) Assay of anti-plasma kallikrein activity Assay method of inhibition of S-2302 degradation
(§1) The test substance was dissolved in a 0.05 M Tris-HC1 (pH 7.8) buffer to make a total volume of 400 µl, and 50 µl of a 2 mM S-2302 solution was added to the solution. After incubation at 37°C for 5 minutes in an incubator, an addition of 50 µl of 0.12 units/ml human plasma kallikrein solution, and incubation at 37°C for 5 minutes, the reaction was terminated by an addition of 50 µl of 50% acetic acid.

[4] = molecular target: human urokinase (Homo sapiens, UniProt P00749); test: Anti-urokinase activity: inhibition of S-2444 degradation; assay type: biochemical; conditions: substrate S-2444, 37°C, pH 8.8; read-out: Urokinase S-2444 (I50)
Description: 3) Assay of anti-urokinase activity Assay method of inhibition of S-2444 degradation
as §1, with “8.8)” for “7.8)”, “1” for “2”, “S-2444” for “S-2302”, “mixture.” for “solution.”, “500” for “0.12”, “urokinase” for “plasma kallikrein”

[5] = tested on: experimental pancreatitis; test: Effect on experimental pancreatitis (sodium taurochorate + trypsin into the common bile duct), survival ratio; assay type: in vivo, SD-rats; conditions: 80 μg/kg/min. x 80 min. continuous infusion, rat
Text: [II] Effect on experimental pancreatitis
SD-rats, body weight of about 200 g were, starved overnight, and 10 to 24 animals were used in one group. Sodium pentobarbital was intraperioneally administered to anesthetize each rat, and then a cannula was inserted to the femoral vein for the administration of the test substance. After abdominal surgery, the bile duct was blocked at a part thereof proximate to the liver, by a clip, a polyethylene tube was inserted to the common bile duct at a part thereof most proximate to the duodenum, and 0.1 ml of solution containing 2 mg sodium taurochorate and 1000 U trypsin dissolved in physiological saline was injected retrogrodely. After removal of the clip and tube, the common bile duct was ligated and the abdomen was closed. Note, the test substance was dissolved in an injective 5% glucose solution, and in the case of a continuous infusion, the solution was administered over 80 minutes starting from 10 minutes before the generation of pancreatitis. In the case of oral administration, the test substance was administered through an oral catheter 30 minutes before the generation of pancreatitis. After 24 hours and 48 hours from the generation of pancreatitis, the survival ratio of the animals was calculated and compared with a control group.

[6] = tested on: experimental shock; test: Effect on experimental shock (endotoxin-induced), survival ratio; assay type: in vivo, ICR-mice; conditions: dose of 30 mg/kg intraperitoneally 15 minutes before endotoxin 40 mg/kg, mouse
Description: [IV] Effect on experimental shock
ICR-mice, body weight of about 25 g, were starved overnight. The test substance was dissolved in an injective 5% glucose solution and intraperioneally administered, and 15 minutes later, endotoxin (E. coli 0127:B8, Difco, U.S.) dissolved in a physiological saline was intraperioneally administered to an amount of 40 mg/kg body weight.

[7] = in vivo; conditions: mouse, intravenous, ICR male mice, up-and-down method, read-out: Acute toxicity (LD50)
Description: ICR male mice 5 to 10 weeks old were used. The test substance was dissolved in a 5% dimethylsulfoxide aqueous solution, and the solution was intravenously administered in an amount of 0.1 to 0.2 ml/10 g body weight. An LD50 value was calculated by up-and-down method.

[8] = tested on: experimental DIC; test: Effect on experimental DIC and MOF (endotoxin-induced); assay type: in vivo, SD-rats; conditions: Dose 100 μg/kg/min infusion, rat, 4 hours after endotoxin 10 mg/kg; for CPK: Table 5-1
Description: [III] Effect on experimental DIC
SD-rats, body weight of about 200 g, were starved overnight. Sodium pentobarbital was intraperioneally administered to anesthetize a rat, and then a cannula was inserted to the femoral vein, and the test substance dissolved in an injective 5% glucose solution was continually infused. Then, 10 minutes from the start of the injection, endotoxin (E. coli 0127:B8, Difco, U.S.) dissolved in physiological saline was injected through the tail vein to an amount of 10 mg/kg body weight, and 4 hours from the administration of endotoxin, the abdomen was opened, blood was obtained from the abdominal aorta, and platelets (Plt), fibrinogen (Fbg), fibrin degradation product (FDP), glutamic oxaloacetic transamirase (GOT), creatinine phosphokinase (CPK), and blood urin nitrogen (BUN) were measured.

[9] = molecular target: T3, bovine factor Xa (Bos taurus, UniProt P00743); test: Anti-FXa activity: inhibition of S-2222 degradation; assay type: biochemical; conditions: substrate S-2222, 37°C, pH 8.3; read-out: FXa S-2222 (I50)
T3 construct: 0.05 ml of 0.3 vial/ml bovine factor Xa
T3 sequence (P00743 234-492 limits assumed): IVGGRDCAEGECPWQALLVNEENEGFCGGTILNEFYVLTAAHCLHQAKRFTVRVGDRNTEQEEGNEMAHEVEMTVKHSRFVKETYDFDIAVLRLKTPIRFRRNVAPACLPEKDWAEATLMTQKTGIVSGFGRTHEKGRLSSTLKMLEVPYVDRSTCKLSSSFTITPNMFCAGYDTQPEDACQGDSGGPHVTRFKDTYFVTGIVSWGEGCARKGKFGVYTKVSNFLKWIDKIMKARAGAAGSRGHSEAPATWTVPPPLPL
T3 sequence (P00743 41-180 partner limits assumed): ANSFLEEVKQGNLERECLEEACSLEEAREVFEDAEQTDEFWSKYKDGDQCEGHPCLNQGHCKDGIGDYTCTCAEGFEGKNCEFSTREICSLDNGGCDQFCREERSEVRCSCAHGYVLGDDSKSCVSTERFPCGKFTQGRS
Description: 4) Assay of anti-FXa activity Assay method of inhibition of S-2222 degradation
To 0.4 ml of the test substance dissolved in a 0.05 M Tris-HC1 (pH 8.3) buffer is added 0.05 ml of 3 mM S-2222 solution, and after incubation at 37°C for about 4 minutes, an addition of 0.05 ml of 0.3 vial/ml bovine factor Xa, and a reaction at 37°C for 4 minutes, the - reaction was terminated by adding 0.05 ml of 50% acetic acid.

T1 sequence (P00747 581-810 limits assumed): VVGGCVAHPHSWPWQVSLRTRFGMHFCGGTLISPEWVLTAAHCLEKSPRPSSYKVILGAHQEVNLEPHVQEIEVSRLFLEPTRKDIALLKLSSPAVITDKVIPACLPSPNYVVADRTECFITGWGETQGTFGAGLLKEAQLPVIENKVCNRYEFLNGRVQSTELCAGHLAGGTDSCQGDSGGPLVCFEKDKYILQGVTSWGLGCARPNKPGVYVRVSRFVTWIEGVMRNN
T1 sequence (P00747 97-580 partner limits assumed): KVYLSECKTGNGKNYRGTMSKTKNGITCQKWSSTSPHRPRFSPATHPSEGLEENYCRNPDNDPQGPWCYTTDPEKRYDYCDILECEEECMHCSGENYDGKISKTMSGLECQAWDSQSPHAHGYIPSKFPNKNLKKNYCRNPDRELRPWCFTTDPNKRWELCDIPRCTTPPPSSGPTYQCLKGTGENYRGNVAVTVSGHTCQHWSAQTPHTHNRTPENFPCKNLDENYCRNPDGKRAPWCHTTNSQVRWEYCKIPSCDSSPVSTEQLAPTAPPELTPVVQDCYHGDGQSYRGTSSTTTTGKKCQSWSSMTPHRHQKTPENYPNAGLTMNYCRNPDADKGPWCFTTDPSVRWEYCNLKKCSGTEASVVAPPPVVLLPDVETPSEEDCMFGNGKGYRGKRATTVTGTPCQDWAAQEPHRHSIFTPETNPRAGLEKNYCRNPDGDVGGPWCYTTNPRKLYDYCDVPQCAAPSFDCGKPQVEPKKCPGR

| SMILES | IC50 [1] [µM] | IC50 [2] [µM] | IC50 [3] [µM] | IC50 [4] [µM] | Effect on experimental pancreatitis Survival ratio(%) After 24 hours [5] [%] | Effect on experimental pancreatitis Survival ratio(%) After 48 hours [5] [%] | Effect on experimental shock (Survival ratio (%) after 24 hours) [6] [%] | LD50 [7] [mg/kg] | BUN [8] [mg/dL] | FDP [8] [µg/mL] | Fbg [8] [mg/dL] | GOT [8] [U/ml] | Plat [8] | CPK [8] [U/1] | IC50 [9] [µM] |
| --- | --- | --- | --- | --- | --- | --- | --- | --- | --- | --- | --- | --- | --- | --- | --- |
| NC[C@H]1CC[C@H](C(=O)NC(Cc2cccc(Oc3ccccc3)c2)C(=O)Nc2ccnc(Cl)c2)CC1 (mixture of isomers) [Compound 11] | 31 | 10 | 0.43 | 190 | 42.0 | 26.7 | 84 | > 100 | – | – | – | – | – | – | – |
| NCC1CCC(C(=O)NC(Cc2ccc(OCc3ccccc3)cc2)C(=O)Nc2ccncc2)CC1 (centres unmarked) [Compound 23] | 120 | 140 | 360 | > 1000 | – | – | 51 | 60 | – | – | – | – | – | – | – |
| NCC1CCC(C(=O)N[C@H](Cc2ccc([N+](=O)[O-])cc2)C(=O)Nc2ccc(C(=O)c3ccccc3)cc2)CC1 (some centres unmarked) [Compound 25] | 240 | 58 | > 250 | 170 | – | – | 70 | – | – | – | – | – | – | – | – |
| CC(=O)c1ccc(NC(=O)[C@H](Cc2ccc(OCc3ccccn3)cc2)NC(=O)c2ccc(CN)cc2)cc1 [Compound 19] | 4.2 | 2.5 | 12 | – | 50.0 | 33.3 | – | – | 30 ± 4 | 16 to 32 | 147 ± 16 | 219 ± 39 | 80 ± 11 x 10^4/μl | 19 ± 2 | – |
| CCOC(=O)CCc1ccc(NC(=O)C(Cc2ccc(OCc3ccccc3)cc2)NC(=O)C2CCC(CN)CC2)cc1 (centres unmarked) [Compound 21] | – | – | – | – | 45.5 | 36.4 | – | 100 | – | – | – | – | – | – | – |
| NC[C@H]1CC[C@H](C(=O)N[C@@H](Cc2ccc(OCc3ccccc3)cc2)C(=O)Nc2ccc(CCC(=O)O)cc2)CC1 [Compound 16] | 12 | 9 | 1.8 | 210 | 58.3 | 58.3 | – | > 100 | – | – | – | – | – | – | – |
| NC[C@H]1CC[C@H](C(=O)NC(Cc2cccc(Oc3ccccc3)c2)C(=O)Nc2ccncc2)CC1 (mixture of isomers) [Compound 13] | – | – | – | – | – | – | 79 | 85 | – | – | – | – | – | – | > 200 |
| NC[C@H]1CC[C@H](C(=O)N[C@@H](Cc2ccc(OCc3ccccc3)cc2)C(=O)Nc2ccncn2)CC1 [Compound 15] | 15 | 6.8 | 5.1 | 110 | 50.0 | 25.0 | – | > 100 | – | – | – | – | – | – | – |
| NC[C@H]1CC[C@H](C(=O)NC(Cc2cccc(Oc3ccccc3)c2)C(=O)Nc2cccnc2)CC1 (mixture of isomers) [Compound 14] | 98 | 70 | 2 | 250 | 58.3 | 41.7 | – | 50 | – | – | – | – | – | – | – |
| NCC1CCC(C(=O)NC(Cc2ccccc2)C(=O)Nc2ccc(C(=O)O)cc2)CC1 (centres unmarked) [Compound 22] | > 1000 | 560 | 2.7 | > 1000 | – | – | – | > 100 | 30 ± 3 | 32 to 64 | 107 ± 18 | 195 ± 35 | 62 ± 12 x 10^4/μl | 14 ± 3 | > 400 |
| CC(=O)c1ccc(NC(=O)[C@H](Cc2cccc(Oc3ccccc3)c2)NC(=O)[C@H]2CC[C@H](CN)CC2)cc1 [Compound 7] | – | – | – | – | – | – | 90 | 60 | – | – | – | – | – | – | > 200 |
| CC(=O)c1ccc(NC(=O)[C@H](Cc2ccccc2)NC(=O)[C@H]2CC[C@H](CN)CC2)cc1 [Compound 2] | 36 | 21 | 0.85 | 58 | – | – | 50 | 50 | – | – | – | – | – | – | 540 |
| CC(=O)c1ccc(NC(=O)[C@@H](Cc2ccc(OCc3ccccn3)cc2)NC(=O)C2CCC(CN)CC2)cc1 (some centres unmarked) [Compound 24] | 78 | 240 | > 1000 | > 1000 | – | – | – | – | – | – | – | – | – | – | – |
| NC[C@H]1CC[C@H](C(=O)N[C@@H](Cc2ccc(OCc3ccccc3)cc2)C(=O)Nc2ccncc2)CC1 [Compound 4] | 3.4 | 0.7 | 1.2 | 32 | – | – | 82 | 85 | – | – | – | – | – | – | 90 |
| NCC1CCC(C(=O)NC(Cc2ccccc2)C(=O)Nc2ccc(CC(=O)O)cc2)CC1 (centres unmarked) [Compound 17] | 760 | 460 | 1.8 | 610 | – | – | – | – | 34 ± 11 | 16 to 64 | 143 ± 23 | 146 ± 21 | 63 ± 2 x 10^4/μl | 22 ± 6 | > 1000 |
